One molecule from ChEMBL document CHEMBL2074329, “Characterization of the transport of a cationic octapeptide, octreotide, in rat bile canalicular membrane: possible involvement of P-glycoprotein” (Biol Pharm Bull, 1998) can be followed below.

Bridge positions count the residues as written; N and C are the ends. Square brackets hold non-standard residues; d marks the D form. Peptide text beside a SMILES is read from it. * marks the point of attachment. Threoninol(2S,3R) = C[C@@H](O)[C@H](CO)N*

The target of this assay is Multidrug resistance protein 1a (Rattus norvegicus) (UniProt Q6PSM0). Briefly: TP_TRANSPORTER: uptake, inhibited by Verapamil, Vincristine and PSC833 in bile canalicular membrane vesicles from SD rat. It is filed as functional, cell membranes. The settings on record: Sprague-Dawley, Bile canalicular membrane vesicle.
Sequence of Multidrug resistance protein 1a (Rattus norvegicus) (Q6PSM0 as listed by the source): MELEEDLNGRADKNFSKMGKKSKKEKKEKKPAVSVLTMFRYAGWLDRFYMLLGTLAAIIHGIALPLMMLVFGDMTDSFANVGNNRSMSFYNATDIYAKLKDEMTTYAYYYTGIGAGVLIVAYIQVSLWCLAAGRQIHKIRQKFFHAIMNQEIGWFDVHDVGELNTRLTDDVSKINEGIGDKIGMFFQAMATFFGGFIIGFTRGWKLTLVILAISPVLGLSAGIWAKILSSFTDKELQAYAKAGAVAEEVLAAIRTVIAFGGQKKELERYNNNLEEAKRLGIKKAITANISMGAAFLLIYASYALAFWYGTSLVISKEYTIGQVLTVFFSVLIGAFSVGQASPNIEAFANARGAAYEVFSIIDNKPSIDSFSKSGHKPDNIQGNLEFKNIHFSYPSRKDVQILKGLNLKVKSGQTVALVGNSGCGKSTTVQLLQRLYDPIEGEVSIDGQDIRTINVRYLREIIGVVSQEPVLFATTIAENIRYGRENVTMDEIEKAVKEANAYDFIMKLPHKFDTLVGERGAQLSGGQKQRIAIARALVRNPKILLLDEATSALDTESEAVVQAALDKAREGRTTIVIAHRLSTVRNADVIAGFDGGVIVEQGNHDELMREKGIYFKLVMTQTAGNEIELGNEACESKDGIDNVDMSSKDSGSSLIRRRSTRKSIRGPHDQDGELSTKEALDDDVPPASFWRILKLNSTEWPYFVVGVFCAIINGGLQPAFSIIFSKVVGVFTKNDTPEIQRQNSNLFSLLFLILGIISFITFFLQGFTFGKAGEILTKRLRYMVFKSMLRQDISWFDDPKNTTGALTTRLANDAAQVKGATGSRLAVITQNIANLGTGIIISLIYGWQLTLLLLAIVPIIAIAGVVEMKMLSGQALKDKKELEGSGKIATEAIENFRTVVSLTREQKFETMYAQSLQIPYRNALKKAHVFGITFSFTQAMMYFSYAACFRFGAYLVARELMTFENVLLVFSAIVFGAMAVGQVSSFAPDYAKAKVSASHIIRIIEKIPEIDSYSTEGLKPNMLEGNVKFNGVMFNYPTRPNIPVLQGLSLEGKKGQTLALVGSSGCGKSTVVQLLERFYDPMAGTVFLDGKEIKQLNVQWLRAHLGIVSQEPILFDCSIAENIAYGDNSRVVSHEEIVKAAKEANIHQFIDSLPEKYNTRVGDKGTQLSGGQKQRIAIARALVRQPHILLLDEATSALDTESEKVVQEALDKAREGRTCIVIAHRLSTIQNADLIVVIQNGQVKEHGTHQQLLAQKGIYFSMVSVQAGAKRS

Take `C[C@@H](O)[C@H](CO)NC(=O)[C@@H]1CSSC[C@H](NC(=O)[C@H](N)Cc2ccccc2)C(=O)N[C@@H](Cc2ccccc2)C(=O)N[C@H](Cc2c[nH]c3ccccc23)C(=O)N[C@@H](CCCCN)C(=O)N[C@@H]([C@@H](C)O)C(=O)N1` (H-[dF]CF[dW]KTC-{Threoninol(2S,3R)}; disulfide 2-7): the Activity entry is “substrate [+]”.
